In patent US12527773B2, “Flavi-block: a pan-flavivirus inhibitor” (Baden-Württemberg Stiftung GmbH, priority 2020, dated 2026):
“Also recorded” adds a separate entry of the source. Like-named read-outs stand apart in the source and are kept apart here.

Key:
[1] = test system: RSV; assay: RT-qPCR analysis of virus genomes, RSV; assay type: cell-based; details: human respiratory syncytial virus, c.t., read-out: EC50 from RT-qPCR analysis
Source text: (§1) Viral RNA was extracted using Isolate II RNA extraction kit (Bioline), and the absolute number of RNA copies determined by Taqman One Step RT-qPCR (Applied Biosystems) by extrapolation from a standard curve generated from in vitro—transcribed virus RNA.
(§2) It was decided to test the ability of C10 to inhibit the flaviviruses DENV1-4, KUNV and ZIKV, in addition to the paramyxovirus RSV, as a control.

[2] = test system: DENV, ZIKV and KUNV; assay: Inhibition of flavivirus infection, summary bounds over DENV, ZIKV and KUNV; assay type: cell-based
Protocol: Vero cells were seeded into 24-well plates at a density of 2×10^5 cells/well and grown overnight in culture medium at 37° C. with 5% CO2 prior to infection with RSV, KUNV, ZIKV as indicated. BHK-21 cells were used for DENV1-4. The virus inoculum was removed and replaced with semisolid overlays of 0.8% aquacide II (Calbiochem) in DMEM+2% FBS, and the mixture was incubated at 37° C. with 5% CO2. After 3-5 days, the cells were fixed with neutral buffered formalin (Sigma) for 3 h at room temperature, rinsed with tap water, and stained with 1% crystal violet for 10 min. The stain was removed by rinsing the cells with tap water, and the viral plaques were counted visually. Dose-response curves were plotted from the plaque number versus the log of the concentration of the test compounds.
as §1, §2

[3] = in vitro; details: for % Remain. Mean: mouse plasma, 1 μM, 37° C.
Protocol: Plasma stability is defined as the percentage of parent compound remaining in plasma over the time.
Incubations were carried out in 5 aliquots of 70 μL each (one for each time point), in duplicates. Test compounds (1 μM, final DMSO concentration 1%) were incubated at 37° C. with shaking at 100 rpm. Five time points over 120 minutes have been analyzed. The reactions were stopped by adding 420 μL of acetonitrile-water mixture (90:10) with subsequent plasma proteins sedimentation by centrifuging at 5500 rpm for 5 minutes. Supernatants were analyzed by the HPLC system coupled with tandem mass spectrometer. The percentage of the test compounds remaining after incubation in plasma and their half-lives (T1/2) were calculated.

[4] = biological target: HCV core protein (Hepatitis C virus genotype 1a, UniProt P27958); assay: Interaction with and crosslinking of HCV core protein (Western blot); details: purified core protein
HCV core protein, sequence (P27958 1-117): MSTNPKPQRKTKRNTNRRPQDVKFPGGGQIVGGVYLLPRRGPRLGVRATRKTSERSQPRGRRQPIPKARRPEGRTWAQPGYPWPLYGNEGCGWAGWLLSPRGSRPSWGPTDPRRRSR

CCN1/C(=C\C=C\c2sc3cc(NC(C)=O)ccc3[n+]2CC)Sc2cc(NC(C)=O)ccc21.[I-] [C10, 6-acetamido-2-((1E,3E)-3-(6-acetamido-3-ethylbenzo[d]thiazol-2(3H)-ylidene)prop-1-en-1-yl)-3-ethylbenzo[d]thiazol-3-ium iodide]
EC50 [1]: 830 ± 970 nM
EC50 ([2]; c.t., DENV, ZIKV and KUNV infection, read-out: EC50): < 500 nM
EC50 ([2]; c.t., read-out: EC50, infectious virus (plaque-forming units)): < 100 nM
EC50 ([2]; c.t., read-out: EC50, virus genomes by RT-qPCR): < 500 nM
EC50 ([2]; p.i., DENV, ZIKV and KUNV infection, read-out: EC50): < 2000 nM
EC50 ([2]; p.i., read-out: EC50, virus genomes by RT-qPCR): < 1700 nM
EC50 ([2]; read-out: EC50, infectious virus (plaque-forming units), p.i.): < 1500 nM
EC50 ([2]; read-out: EC50s for co-addition, all serotypes of DENV, ZIKV and WNV, plaque assays or qPCR): 10 to 100 nM
% Remain. Mean ([3]; 0 min): 100%
% Remain. Mean ([3]; 20 min): 93%
% Remain. Mean ([3]; 40 min): 90%
% Remain. Mean ([3]; 60 min): 82%
% Remain. Mean ([3]; 120 min): 57%
half-life at 1 μM ([3]; mouse, plasma): 3.68 h
stability in mouse plasma ([3]; mouse, plasma): good stability
cross-linking / oligomerization of HCV core protein [4]: leads to cross-linking of the core protein; also recorded: triggers the oligomerization of HCV core protein
